From patent US9371295B2, “Compounds for use in the treatment of disorders that are ameliorated by inhibition of HDAC” (IRBM—Science Park S.p.A., priority 2012, dated 2016)
Values joined by “and” are separate entries in the source; they are usually repeats but may differ in a detail not shown here. Identical values can stand only once.

Tested on: erythroid precursor cells (ErPC) from β-thalassemia patients
Test: Fetal hemoglobin production in erythroid precursor cells from β-thalassemia patients (HPLC)
Assay type: cell-based, human
Text: Stimulation of the production of mRNA for γ-globin in human erythroid precursors isolated from peripheral blood was detected by using the technique by Fibach (Fibach, E. Hemoglobin, 1998, 22, 445-458; Blood, 1993, 81, 1630-1635). Blood samples were obtained from subjects after written informed consent and the local ethical commette approved the study. This technique provides for two stages: in the first stage, the cells isolated from peripheral blood of an healthy subject or a subject suffering from a hemopoietic pathology, such as sickle cell anaemia or beta-thalassemia, are sown in a culture medium to which 10% of conditioned medium derived from the vescicle carcinoma cell line 5637 has been added. The second stage consists in cultivating the isolated cells in a suitable culture medium, supplemented with erythropoiethin. In short, mononuclear cells were isolated from peripheral blood samples of normal donors and patients by Ficoll-Hypaque density gradient centrifugation and seeded in alpha-minimal essential medium (Sigma-Aldrich) supplemented with 10% FBS (Analitica de Mori), 1 μg/mL cyclosporin A (Sigma-Aldrich), and 10% conditioned medium from the 5637 bladder carcinoma cell line and 10 ng/ml stem cell factor (PeproTech EC Ltd, London, England). After 7-day incubation in this phase I culture, the non-adherent cells were harvested, washed, and recultured in fresh medium composed of α-medium, 30% FBS, 1% de-ionized bovine serum albumin (Sigma-Aldrich), 10^−5 M β-mercaptoethanol, 2 mM L-glutamine, 10^−6 M dexamethasone, 1 U/ml human recombinant erythropoietin (Tebu-bio, Magenta, MI, Italy) and 10 ng/ml stem cell factor. This part of the culture is referred to as phase II. Compounds were added on day 4-5 of phase II and cells were harvested on day 12. All cultures were incubated at 37° C., under an atmosphere of 5% CO2 in air, with extra humidity. The expression of the genes encoding for γ-globin was evaluated by quantitative RT-PCR. The production of HbF was analyzed by HPLC. […]

CCC(=O)CCCCC[C@H](NC(=O)C1CN(C)C1)c1ncc(-c2cc3ccccc3nc2OC)o1 [Compound 2, (S)-N-(1-(5-(2-methoxyquinolin-3-yl)oxazol-2-yl)-7-oxononyl)-1-methylazetidine-3-carboxamide]
% of fetal hemoglobin production (ErPC from β-thalassemia patients 1-3 (one line per patient), 100 nM): 78.6% and 85.5% and 81.5%
proportion of HbF in lysates (cation-exchange HPLC, FIG. 1) (ErPC from β-thalassemic patients, 100 nM, in words): Increase in the proportion of HbF is detectable
induction of HbF in erythroid precursor cells (ErPC) (ErPC from β-thalassemic patients, in words): strong inducer of HbF
